Molecular target: T1, recombinant human deoxyuridine nucleotidohydrolase (dUTPase) (Homo sapiens, UniProt P33316)
T1 construct: made in house
T1 sequence (P33316 1-164 isoform P33316-2): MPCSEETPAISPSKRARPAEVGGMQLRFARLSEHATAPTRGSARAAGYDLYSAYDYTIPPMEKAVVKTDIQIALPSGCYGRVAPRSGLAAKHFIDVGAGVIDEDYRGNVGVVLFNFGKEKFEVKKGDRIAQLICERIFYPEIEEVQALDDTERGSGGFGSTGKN
Experiment: fluorescence-based dUTPase inhibition assay (DNA polymerase-based dUTP detection)
Format: biochemical
Conditions: mean across three concentrations, typically 100, 50 and 25 μmol/L, compared to the in-run positive control
Source text: Recombinant human deoxyuridine nucleotidohydrolase (dUTPase) is expressed and purified as described in Ladner R D, Carr S A, Huddleston M J, McNulty D E, Caradonna S J. J Biol Chem. 1996 Mar. 29; 271(13):7752-7. All drugs stocks are aliquoted and diluted as appropriate prior to use. The oligonucelotide primer, templates and fluorophore- and quencher-labeled detection probes are synthesized by Integrated DNA Technologies (Coralville, Iowa), subjected to polyacrylamide gel electrophoresis purification and reconstituted in Omnipur sterile nuclease-free water (EMD Chemicals USA, Gibbstown N.J.) at a stock concentration of 100 μmol/L. The two non-emissive (dark) quenching molecules incorporated into the detection probes include the Iowa black fluorescein quencher (IBFQ; absorption max 531 nm) and ZEN (non-abbreviation; absorption max 532 nm). The fluorescent label utilized is 6-FAM (5′-carboxyfluorescein; excitation max.=494 nm, emission max.=520 nm). Probes are further diluted to a working stock of 10 μmol/L and aliquoted to avoid repeated freeze/thaw cycles. AmpliTaq Gold DNA Polymerase, GeneAmp 10×PCR Buffer 2, MgCl2 and MicroAmp Optical 96-well Reaction Plates are purchased from Applied Biosystems (Carlsbad, Calif.). dNTPs are purchased individually at stock concentrations of 100 mmol/L from New England Biolabs at HPLC-certified >99% purity (Ipswich, Mass.).
Reaction mixtures contained primer, probe and template at an equimolar final concentration of 0.4 μmol/L. Magnesium chloride (MgCl2) is included at a final concentration of 2 mmol/L. Non-limiting dNTPs are included in the reaction mix in excess at a final concentration of 100 μmol/L (dUTP/dTTP is excluded). AmpliTaq Gold DNA polymerase is added at 0.875 U/reaction, 2.5 μl of 10×PCR buffer 2 added and nuclease-free ddH2O added to a final reaction volume of 25 μl. For dUTP inhibition analysis, the volume of ddH2O is further modified to accommodate an additional 1 μl of dUTPase (10 ng/μl) and 1 μl of inhibitor or DMSO control. Thermal profiling and fluorescence detection is performed using a customized thermal program on board a Roche Lightcycler LC480 Instrument II. For analysis of dNTPs, the thermal profile consisted of an 8 min 37° C. step followed by a 10 min 95° C. step to ‘hot-start’ the Taq polymerase and a primer extension time of up to 30 min at 60° C. Raw fluorescence spectra for 6-FAM is measured at specified time intervals to follow assay progression on board a Roche LightCycler 480 Software Version 1.5 and exported and analyzed in Microsoft Excel (Microsoft, Redmond Wash.) and Prism (GraphPad Software, La Jolla Calif.). Fluorescence values for blank reactions (limiting dNTP omitted) are subtracted to give normalized fluorescence units (NFU) to account for background fluorescence.
Test compounds were screened in a fluorescence-based assay. The assay employed a DNA polymerase-based approach utilizing an oligonucleotide template with 3 distinct regions: a 3′ primer binding region, a mid-template dUTP/thymidine triphosphate (TTP) detection region and a 5′ 6-[…] (FAM)-labeled probe binding region that incorporates a black hole quenching moiety. During the reaction, the probe and primer hybridize to the oligonucleotide template to form the template:primer:probe complex. When Taq polymerase binds to the primer in the TPP complex and dUTP is present, successful extension of the nascent strand occurs and the inherent 5′ to 3′ exonuclease activity of Taq polymerase cleaves and displaces the 6-FAM-labeled probe in a 5′ to 3′ direction, releasing the 6-FAM fluorophore from its proximity to the […]. This displacement effectively disrupts the Förster resonance energy transfer (FRET) and the resulting fluorescence detected upon excitation is directly proportional to the amount of the dUTP available in the assay for incorporation. […]

% relative inhibition vs. positive control [%] | also measured | Structure (SMILES)
80 |  | CC[C@@H](NS(=O)(=O)CC/C=C/CC1CCC(=O)NC1=O)c1ccc(F)c(OCC2CC2)c1 (stereo partly drawn) [Example 88, (E)-N—((R)-1-(3-(cyclopropylmethoxy)-4-fluorophenyl)propyl)-5-(2,6-dioxopiperidin-3-yl)pent-3-ene-1-sulfonamide]
 | % relative inhibition vs. positive control (listed as 79 trans isomer 2): 51% | CC(C)(NS(=O)(=O)CC/C=C/CC1CCC(=O)NC1=O)c1ccc(F)c(OCC2CC2)c1 (single isomer, unassigned) [Example 79 trans isomer 2, (E)-N-(2-(3-(cyclopropylmethoxy)-4-fluorophenyl)propan-2-yl)-5-(2,6-dioxopiperidin-3-yl)pent-3-ene-1-sulfonamide]
26 |  | CC(C)(NS(=O)(=O)C/C=C/CC1CCC(=O)NC1=O)c1ccc(F)c(OCC2CC2)c1 (stereo not shown) [Example 82, (E)-N-(2-(3-(cyclopropylmethoxy)-4-fluorophenyl)propan-2-yl)-4-(2,6-dioxopiperidin-3-yl)but-2-ene-1-sulfonamide]
45 |  | CC(C)(NS(=O)(=O)CCC/C=C/CC1CCC(=O)NC1=O)c1ccc(F)c(OCC2CC2)c1 (stereo not shown) [Example 83, (E)-N-(2-(3-(cyclopropylmethoxy)-4-fluorophenyl)propan-2-yl)-6-(2,6-dioxopiperidin-3-yl)hex-4-ene-1-sulfonamide]
 | % relative inhibition vs. positive control (listed as 81 isomer 1): 16% | CC(C)(NS(=O)(=O)CCCCCC1CCC(=O)NC1=O)c1ccc(F)c(OCC2CC2)c1 (single isomer, unassigned) [Example 81 isomer 1, N-(2-(3-(cyclopropylmethoxy)-4-fluorophenyl)propan-2-yl)-5-(2,6-dioxopiperidin-3-yl)pentane-1-sulfonamide]
26 |  | CC(C)(NS(=O)(=O)C/C=C/CCC1CCC(=O)NC1=O)c1ccc(F)c(OCC2CC2)c1 (stereo not shown) [Example 87, (E)-N-(2-(3-(cyclopropylmethoxy)-4-fluorophenyl)propan-2-yl)-5-(2,6-dioxopiperidin-3-yl)pent-2-ene-1-sulfonamide]
22 |  | CC(C)(NS(=O)(=O)CC/C=C/CC1CCC(=O)NC1=O)c1cccc(OCC2CC2)c1 (stereo not shown) [Example 84, (E)-N-(2-(3-(cyclopropylmethoxy)phenyl)propan-2-yl)-5-(2,6-dioxopiperidin-3-yl)pent-3-ene-1-sulfonamide]
10 |  | CC[C@@H](NS(=O)(=O)CCCCCC1CCC(=O)NC1=O)c1ccc(F)c(OCC2CC2)c1 (stereo partly drawn) [Example 91, N—((R)-1-(3-(cyclopropylmethoxy)-4-fluorophenyl)propyl)-5-(2,6-dioxopiperidin-3-yl)pentane-1-sulfonamide]
6 |  | CC[C@@](O)(CNS(=O)(=O)CCCNC1CCC(=O)NC1=O)c1ccc(F)c(OCC2CC2)c1 (stereo partly drawn) [Example 86, N—((S)-2-(3-(cyclopropylmethoxy)-4-fluorophenyl)-2-hydroxybutyl)-3-((2,6-dioxopiperidin-3-yl)amino)propane-1-sulfonamide]
 | % relative inhibition vs. positive control (listed as 88 trans isomer 2): 167% | CC[C@@H](NS(=O)(=O)CC/C=C/CC1CCC(=O)NC1=O)c1ccc(F)c(OCC2CC2)c1 (single isomer, unassigned) [Example 88 trans isomer 2]
49 |  | CC(C)(NS(=O)(=O)CCCCCC1CCC(=O)NC1=O)c1ccc(F)c(OCC2CC2)c1 (stereo not shown) [Example 81, N-(2-(3-(cyclopropylmethoxy)-4-fluorophenyl)propan-2-yl)-5-(2,6-dioxopiperidin-3-yl)pentane-1-sulfonamide]
 | % relative inhibition vs. positive control (listed as 88 trans isomer 1): 10% | CC[C@@H](NS(=O)(=O)CC/C=C/CC1CCC(=O)NC1=O)c1ccc(F)c(OCC2CC2)c1 (single isomer, unassigned) [Example 88 trans isomer 1]
70 |  | CC(C)(NS(=O)(=O)CC/C=C/CC1CCC(=O)NC1=O)c1ccc(F)c(OCC2CC2)c1 (stereo not shown) [Example 79, (E)-N-(2-(3-(cyclopropylmethoxy)-4-fluorophenyl)propan-2-yl)-5-(2,6-dioxopiperidin-3-yl)pent-3-ene-1-sulfonamide]
 | % relative inhibition vs. positive control (listed as 81 isomer 2): 41% | CC(C)(NS(=O)(=O)CCCCCC1CCC(=O)NC1=O)c1ccc(F)c(OCC2CC2)c1 (single isomer, unassigned) [Example 81 isomer 2, N-(2-(3-(cyclopropylmethoxy)-4-fluorophenyl)propan-2-yl)-5-(2,6-dioxopiperidin-3-yl)pentane-1-sulfonamide]
82 |  | CC[C@@](O)(CNS(=O)(=O)CCCCC1CCC(=O)NC1=O)c1ccc(F)c(OCC2CC2)c1 (stereo partly drawn) [Example 90, N—((S)-2-(3-(cyclopropylmethoxy)-4-fluorophenyl)-2-hydroxybutyl)-4-(2,6-dioxopiperidin-3-yl)butane-1-sulfonamide]
81 |  | CC(C)(O)COc1cc(C2(NS(=O)(=O)CC/C=C/CN3CCC(=O)NC3=O)CC2)ccc1F [Example 92, (E)-5-(2,4-dioxotetrahydropyrimidin-1(2H)-yl)-N-(1-(4-fluoro-3-(2-hydroxy-2-methylpropoxy)phenyl)cyclopropyl)pent-3-ene-1-sulfonamide]
11 |  | CC(C)(NS(=O)(=O)CCCCCNC1CCC(=O)NC1=O)c1ccc(F)c(OCC2CC2)c1 (stereo not shown) [Example 85, N-(2-(3-(cyclopropylmethoxy)-4-fluorophenyl)propan-2-yl)-5-((2,6-dioxopiperidin-3-yl)amino)pentane-1-sulfonamide]
65 |  | CC[C@@](O)(CNS(=O)(=O)C/C=C/CC1CCC(=O)NC1=O)c1ccc(F)c(OCC2CC2)c1 (stereo partly drawn) [Example 89, (E)-N—((S)-2-(3-(cyclopropylmethoxy)-4-fluorophenyl)-2-hydroxybutyl)-4-(2,6-dioxopiperidin-3-yl)but-2-ene-1-sulfonamide]
 | % relative inhibition vs. positive control (listed as 79 trans isomer 1): 22% | CC(C)(NS(=O)(=O)CC/C=C/CC1CCC(=O)NC1=O)c1ccc(F)c(OCC2CC2)c1 (single isomer, unassigned) [Example 79 trans isomer 1, (E)-N-(2-(3-(cyclopropylmethoxy)-4-fluorophenyl)propan-2-yl)-5-(2,6-dioxopiperidin-3-yl)pent-3-ene-1-sulfonamide]

— patent publication US11174271B2, “6-membered uracil isosteres” (CV6 Therapeutics (NI) Limited, priority 2016, dated 2021)
